{"source": "patent US9962398B2", "about": "“Sulfonamide compounds for inhibition of metastatic tumor growth” (Welichem Biotech Inc., priority 2010, dated 2018)", "key": {"4T1 mammary tumor cells": {"tested_on": "4T1 mammary tumor cells", "assay": "Experimental metastasis assay, intravenous 4T1 cells, bioluminescence", "assay_type": "in vivo, mouse", "settings": "tail vein 4T1 cells, BALB/c mice, daily i.p. for 5 days, imaged 24 h after final dose", "method": "For studies involving genetic depletion of CAIX, 4T1 or 67NR cells (5×10^5) were injected directly into the tail vein of 7-9 week-old female BALB/c mice. Mice were imaged once per week to follow the growth of metastases. Mice were euthanized 20 days post-injection and lungs were resected for further analysis. Tumor burden in the lung was quantified by manually counting nodules visible on the lung surface. For studies using sulphonamide inhibitors, 4T1 cells (1-5×10^5) were injected as described above (Pacchiano et al, (2011) J Med Chem 54:1896-1902).\nAnimals were treated 24 hours post inoculation of cells. Three doses were administered by i.p. injection over 6 days and the mice were imaged 24 hours following the third dose of inhibitor. […] Quantification of tumor-derived bioluminescence is shown in 12C. Regions of interest were positioned around metastatic foci and total flux (photons/sec) at the mouse surface was calculated. Data are reported as the mean±s.e.m. N=4 per group. *P<0.05.\n4T1 cells were injected directly into the tail vein of BALB/c mice. […] Vehicle and inhibitor were administered by i.p. injection. Shown are representative images of tumor-cell derived bioluminescence in control and inhibitor-treated animals."}, "MDA-231 LM2-4 Luc+ cells": {"tested_on": "MDA-231 LM2-4 Luc+ cells", "assay": "3D Matrigel invasion assay in hypoxia", "assay_type": "cell-based, human", "settings": "4 days in hypoxia", "method": "A 3D “on-top” matrigel culture assay was performed as described previously (Lee et al, (2007) Nat Methods 4:359-365). […] Cells were allowed to attach for 45 minutes with side-to-side agitation every 10-15 minutes to prevent clumping of cells in the center of the well. An additional 100 μl/well media containing 10% matrigel was added to the cells and cultures were incubated in hypoxia for 4 days. Images were acquired and cultures were fixed for TUNEL using the “whole culture fixation” methodology outlined in Lee et al, (2007) Nat Methods 4:359-365).\nTreatment with novel sulfonamide inhibitors of CAIX attenuates hypoxia-induced invasion of human breast cancer cells grown in 3D Matrigel™ cultures (FIG. 16). Cells were cultured in 3D “on-top” Matrigel™ assays for 4 days in hypoxia in the presence of inhibitors. DMSO-treated cell cultures served as controls. The percentage concentration of DMSO and molar concentration of inhibitors are indicated. Representative phase contrast images are shown."}, "[1]": {"tested_on": "MDA-MB-231 LM2-4luc+ tumors", "assay": "ESA+ cancer stem cell population in orthotopic xenograft tumors (FACS)", "assay_type": "in vivo, human", "settings": "NOD/SCID mice, 38 mg/kg daily i.p., vs vehicle-treated tumors", "text": "MDA-MB-231 LM2-4^luc+ were implanted orthotopically into NOD/SCID mice. […] (A) Primary tumors were removed, dissociated and ESA+ cell population assessed by FACS analysis. […] (B) Data shown are the mean changes in ESA+ cells±SEM, from 3 mice. **P<0.0224."}, "[2]": {"tested_on": "MDA-MB-231 LM2-4Luc+ cells", "settings": "in vivo", "source_text": "For studies involving CAIX depletion, 1×10^7 MDA-MB-231 cells suspended in a 50% Matrigel/PBS solution were implanted subcutaneously in 6-8 week-old female NOD.CB17-prkdc^scid/J mice. […] Therapy was initiated when the tumors reached 200 mm^3. For both models, tumor growth was monitored by caliper measurement.\nThe initiation and termination of inhibitor treatment is indicated. n=8/group. *P<0.03, **P<0.001."}, "hCA IX [3]": {"target": "T1, hCA IX (Homo sapiens (Human), UniProt Q16790)", "assay": "biochemical"}, "hCA II": {"target": "hCA II (Homo sapiens (Human), UniProt P00918)", "settings": "read-out: Ki (nM) hCA II; Table 3"}, "hCA IX [4]": {"target": "T1, hCA IX", "settings": "read-out: Ki (nM) hCA IX; Table 3"}, "hCA XII": {"target": "hCA XII (Homo sapiens (Human), UniProt O43570)", "sequence (O43570 25-354)": "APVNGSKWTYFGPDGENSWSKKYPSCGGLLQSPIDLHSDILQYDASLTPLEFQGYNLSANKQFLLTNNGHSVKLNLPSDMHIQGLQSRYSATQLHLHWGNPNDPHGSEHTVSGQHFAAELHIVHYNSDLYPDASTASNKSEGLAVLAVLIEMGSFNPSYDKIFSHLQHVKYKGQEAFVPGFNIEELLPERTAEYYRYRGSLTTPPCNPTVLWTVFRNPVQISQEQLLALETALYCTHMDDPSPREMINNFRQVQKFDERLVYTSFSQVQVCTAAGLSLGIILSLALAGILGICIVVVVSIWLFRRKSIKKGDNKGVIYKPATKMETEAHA", "settings": "read-out: Ki (nM) hCA XII; Table 3"}}, "note": "Read-outs that look alike come from different tables or passages of the source."}
{"smiles": "NS(=O)(=O)c1ccc(NC(=O)Nc2ccc(F)cc2)cc1", "note": "[MST-104, 4-{[(4′-Fluorophenyl)carbamoyl]amino}benzenesulfonamide]", "values": [{"measurement": "formation of metastases (tumor-derived bioluminescence)", "setting": "4T1 mammary tumor cells", "result": "statistically significant decrease in the formation of metastases"}, {"measurement": "hypoxia-induced invasion", "setting": "MDA-231 LM2-4 Luc+ cells", "result": "inhibit invasion"}, {"measurement": "ESA+ cell population", "setting": "[1]", "result": "significantly reduced ESA+ cell population"}, {"measurement": "tumor growth", "setting": "[2]", "result": "significant, dose-dependent inhibition of tumor growth"}]}
{"smiles": "NS(=O)(=O)c1cccc(NC(=O)Nc2c(F)c(F)c(F)c(F)c2F)c1", "note": "[MST-133, 3-(3-(Perfluorophenyl)ureido)benzenesulfonamide]", "values": [{"measurement": "Ki", "setting": "hCA IX [3]", "result": 4.2, "unit": "nM"}]}
{"smiles": "NS(=O)(=O)c1ccc(NC(=O)Nc2cccc(Cl)c2)cc1", "note": "[MST-143, 4-(3-(3′-chlorophenyl)ureido)benzenesulfonamide]", "values": [{"measurement": "Ki", "setting": "hCA II", "result": 10, "unit": "nM"}, {"measurement": "Ki", "setting": "hCA IX [4]", "result": 8.4, "unit": "nM"}, {"measurement": "Ki", "setting": "hCA XII", "result": 8.5, "unit": "nM"}]}
